Measured values: US7880007B2, “Bicyclic substituted phenyl piperidine modulators of muscarinic receptors” (Vertex Pharmaceuticals Incorporated, priority 2004, dated 2011)

How the values were obtained:
Assay type in all cases: cell-based
[1] = target: T1, M2 muscarinic receptor (Homo sapiens, UniProt P08172); test: Functional mobilization of intracellular calcium (FLIPR), M2-CHO cells; conditions: for Emax: 100% efficacy is the maximum response obtained with the Carbachol control; for M2 Activity: M2-CHO cells, calcium mobilization (FLIPR)
T1 construct: expressed in transfected cells; host or cells: CHO (M2-CHO)
T1 sequence (P08172 1-466): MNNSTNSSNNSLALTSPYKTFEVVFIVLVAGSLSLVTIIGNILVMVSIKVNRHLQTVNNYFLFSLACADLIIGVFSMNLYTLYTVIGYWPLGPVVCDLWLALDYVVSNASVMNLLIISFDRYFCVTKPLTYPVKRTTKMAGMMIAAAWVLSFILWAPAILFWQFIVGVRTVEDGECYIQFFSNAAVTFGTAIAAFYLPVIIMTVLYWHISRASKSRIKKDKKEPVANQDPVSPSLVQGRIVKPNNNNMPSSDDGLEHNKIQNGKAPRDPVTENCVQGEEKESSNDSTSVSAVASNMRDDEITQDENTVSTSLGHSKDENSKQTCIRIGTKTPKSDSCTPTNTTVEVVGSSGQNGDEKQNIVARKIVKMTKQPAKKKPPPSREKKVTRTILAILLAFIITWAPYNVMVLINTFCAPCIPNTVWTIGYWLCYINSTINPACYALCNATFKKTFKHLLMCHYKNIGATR
In short: (§1)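 FLIPR fluorescence (ex 488, em 540 nm) recorded 60 sec after compound addition to dye-loaded CHO cells. Agonist mode: compound alone. Antagonist mode: 15 min compound pre-incubation, then carbachol at EC80, or co-application. Efficacy expressed as % of maximal carbachol response.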

[2] = target: T2, M3 muscarinic receptor (Homo sapiens, UniProt P20309); test: Functional mobilization of intracellular calcium (FLIPR), M3-CHO cells; conditions: for Emax: 100% efficacy is the maximum response obtained with the Carbachol control; for M3 Activity: M3-CHO cells, calcium mobilization (FLIPR)
T2 construct: expressed in transfected cells; host or cells: CHO (M3-CHO)
T2 sequence (P20309 whole entry): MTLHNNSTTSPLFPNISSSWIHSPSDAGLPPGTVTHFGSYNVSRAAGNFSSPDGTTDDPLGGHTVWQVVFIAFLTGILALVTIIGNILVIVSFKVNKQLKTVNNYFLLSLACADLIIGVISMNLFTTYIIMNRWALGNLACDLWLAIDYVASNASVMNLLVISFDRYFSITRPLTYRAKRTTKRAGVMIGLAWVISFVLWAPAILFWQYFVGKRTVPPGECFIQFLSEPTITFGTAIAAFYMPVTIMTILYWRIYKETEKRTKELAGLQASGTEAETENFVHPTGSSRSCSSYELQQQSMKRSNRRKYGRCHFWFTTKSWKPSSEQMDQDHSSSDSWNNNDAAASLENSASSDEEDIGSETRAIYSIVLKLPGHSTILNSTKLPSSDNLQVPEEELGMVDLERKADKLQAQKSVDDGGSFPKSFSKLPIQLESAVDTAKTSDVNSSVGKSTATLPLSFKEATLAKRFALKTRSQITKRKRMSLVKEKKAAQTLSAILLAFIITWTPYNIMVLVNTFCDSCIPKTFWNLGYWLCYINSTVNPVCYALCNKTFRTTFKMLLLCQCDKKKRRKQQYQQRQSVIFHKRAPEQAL
In short: as §1

[3] = target: T3, M4 muscarinic receptor (Homo sapiens, UniProt P08173); test: Functional mobilization of intracellular calcium (FLIPR), M4-CHO cells; conditions: for Emax: 100% efficacy is the maximum response obtained with the Carbachol control; for M4 Activity: M4-CHO cells, calcium mobilization (FLIPR)
T3 construct: expressed in transfected cells; host or cells: CHO (M4-CHO)
T3 sequence (P08173 1-479): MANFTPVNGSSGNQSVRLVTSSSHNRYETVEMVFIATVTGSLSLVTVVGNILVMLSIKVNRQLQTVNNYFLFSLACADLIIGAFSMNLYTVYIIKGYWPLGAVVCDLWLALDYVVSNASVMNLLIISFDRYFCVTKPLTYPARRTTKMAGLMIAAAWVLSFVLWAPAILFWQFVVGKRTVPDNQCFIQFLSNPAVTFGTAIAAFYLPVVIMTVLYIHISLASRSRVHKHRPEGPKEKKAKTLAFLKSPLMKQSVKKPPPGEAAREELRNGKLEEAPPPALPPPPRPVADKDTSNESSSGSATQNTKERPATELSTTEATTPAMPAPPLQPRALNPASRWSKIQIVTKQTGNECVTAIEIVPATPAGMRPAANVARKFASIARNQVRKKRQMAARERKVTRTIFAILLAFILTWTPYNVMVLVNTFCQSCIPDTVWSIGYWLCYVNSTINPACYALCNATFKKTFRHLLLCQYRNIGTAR
In short: as §1

[4] = target: T4, M1 muscarinic receptor (Homo sapiens, UniProt P11229); test: Functional mobilization of intracellular calcium (FLIPR), M1-CHO cells; conditions: for Emax: 100% efficacy is the maximum response obtained with the Carbachol control; for M1 Activity: M1-CHO cells, calcium mobilization (FLIPR)
T4 construct: expressed in transfected cells; host or cells: CHO (M1-CHO)
T4 sequence (P11229 1-460): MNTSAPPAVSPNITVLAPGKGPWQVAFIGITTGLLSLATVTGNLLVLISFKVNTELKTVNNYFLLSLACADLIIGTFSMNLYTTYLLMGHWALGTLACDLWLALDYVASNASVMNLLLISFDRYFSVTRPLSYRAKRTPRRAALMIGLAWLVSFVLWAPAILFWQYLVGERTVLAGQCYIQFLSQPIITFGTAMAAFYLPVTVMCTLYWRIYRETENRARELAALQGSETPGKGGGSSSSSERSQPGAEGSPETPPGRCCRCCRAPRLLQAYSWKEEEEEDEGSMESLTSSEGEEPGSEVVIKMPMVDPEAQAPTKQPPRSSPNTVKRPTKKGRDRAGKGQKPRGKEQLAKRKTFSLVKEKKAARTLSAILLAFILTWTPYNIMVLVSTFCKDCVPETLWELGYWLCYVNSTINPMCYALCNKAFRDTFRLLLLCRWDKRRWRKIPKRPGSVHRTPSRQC
In short: as §1

| SMILES | Emax [1] | M2 Activity [1] | Emax [2] | M3 Activity [2] | Emax [3] | M4 Activity [3] | Emax [4] | M1 Activity [4] |
| --- | --- | --- | --- | --- | --- | --- | --- | --- |
| Cc1ccc(-c2ccccc2C2CCN([C@H]3C[C@H]4CC[C@H]3C4)CC2)c(C)c1 [Compound 386] | < 25% | + (activity was measured to be greater than 5.0 μM) | < 25% | + (activity was measured to be greater than 5.0 μM) | 25 to 100% | + (activity was measured to be greater than 5.0 μM) | < 25% | + (activity was measured to be greater than 5.0 μM) |
| CCOC(=O)N1C2CCC1CC(N1CCC(c3cc(-c4ccc5c(c4)OCO5)ccc3OC)CC1)C2 (centres unmarked) [Compound 387] | < 25% | + (activity was measured to be greater than 5.0 μM) | < 25% | + (activity was measured to be greater than 5.0 μM) | 25 to 100% | ++ (activity was measured to be from 1.0 μM to 5.0 μM) | 25 to 100% | + (activity was measured to be greater than 5.0 μM) |
| CNC(=O)c1ccc(-c2ccc(OC)c(C3CCN([C@H]4C[C@H]5CC[C@H]4C5)CC3)c2)cc1 [Compound 388] | < 25% | + (activity was measured to be greater than 5.0 μM) | < 25% | + (activity was measured to be greater than 5.0 μM) | 25 to 100% | +++ (activity was measured to be less than 1.0 μM) | < 25% | + (activity was measured to be greater than 5.0 μM) |
| COc1ccc(-c2ccc(C(=O)Nc3nccs3)cc2)cc1C1CCN(C2CCOCC2)CC1 [Compound 389] | < 25% | + (activity was measured to be greater than 5.0 μM) | < 25% | + (activity was measured to be greater than 5.0 μM) | < 25% | + (activity was measured to be greater than 5.0 μM) | < 25% | + (activity was measured to be greater than 5.0 μM) |
| CCOC(=O)N1C2CCC1CC(N1CCC(OC)(c3cc(Cl)ccc3OC)CC1)C2 (centres unmarked) [Compound 390] | < 25% | + (activity was measured to be greater than 5.0 μM) | < 25% | + (activity was measured to be greater than 5.0 μM) | 25 to 100% | +++ (activity was measured to be less than 1.0 μM) | 25 to 100% | +++ (activity was measured to be less than 1.0 μM) |
| O=C(NCc1cccc(C2CCN(C3C[C@H]4CC[C@H]3C4)CC2)c1)C1CC1 (some centres unmarked) [Compound 391] | < 25% | + (activity was measured to be greater than 5.0 μM) | < 25% | + (activity was measured to be greater than 5.0 μM) | < 25% | + (activity was measured to be greater than 5.0 μM) | < 25% | + (activity was measured to be greater than 5.0 μM) |
| CCOC(=O)N1CCC(N2CCC(c3cc(Cl)ccc3OC)CC2)CC1 [Compound 392] | 25 to 100% | +++ (activity was measured to be less than 1.0 μM) | 25 to 100% | +++ (activity was measured to be less than 1.0 μM) | 25 to 100% | +++ (activity was measured to be less than 1.0 μM) | 25 to 100% | +++ (activity was measured to be less than 1.0 μM) |
